According to publication PMC6934184, “Selective DNA-PKcs inhibition extends the therapeutic index of localized radiotherapy and chemotherapy” (The Journal of Clinical Investigation, 2019):

Biological target: T1, PRKCD (PKC delta) (Homo sapiens, UniProt Q05655)
T1 construct: purchased Thermo Fisher Scientific (Life Technologies) SelectScreen
Test: SelectScreen Z'LYTE
Type: biochemical
Summary of the method: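 Percent values come from Thermo SelectScreen profiling of NU5455, combining activity and binding assays. CSF1R was run in Z'LYTE format at Km app ATP, and CAMK1 in Adapta format with ATP listed at 10.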

T1 sequence (Q05655 whole entry): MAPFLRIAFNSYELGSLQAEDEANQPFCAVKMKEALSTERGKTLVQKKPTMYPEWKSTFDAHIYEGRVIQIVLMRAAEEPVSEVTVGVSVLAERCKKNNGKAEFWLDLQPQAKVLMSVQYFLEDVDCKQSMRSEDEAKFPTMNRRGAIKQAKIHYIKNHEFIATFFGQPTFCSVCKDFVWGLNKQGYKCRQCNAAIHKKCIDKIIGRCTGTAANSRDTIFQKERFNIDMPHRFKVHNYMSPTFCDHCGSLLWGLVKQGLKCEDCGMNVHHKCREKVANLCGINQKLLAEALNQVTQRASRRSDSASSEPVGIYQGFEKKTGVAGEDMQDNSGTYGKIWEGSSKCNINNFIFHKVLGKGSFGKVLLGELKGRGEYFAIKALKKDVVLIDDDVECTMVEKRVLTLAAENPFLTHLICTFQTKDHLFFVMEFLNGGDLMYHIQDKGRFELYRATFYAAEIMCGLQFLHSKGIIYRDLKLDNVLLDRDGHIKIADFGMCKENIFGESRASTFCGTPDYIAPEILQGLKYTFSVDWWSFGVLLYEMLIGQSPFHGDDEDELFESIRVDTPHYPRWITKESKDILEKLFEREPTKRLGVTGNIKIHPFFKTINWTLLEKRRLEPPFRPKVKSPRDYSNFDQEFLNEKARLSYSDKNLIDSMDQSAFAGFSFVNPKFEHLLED

SMILES: CN(C(=O)CN1CCOCC1)c1ccc2sc3c(-c4cccc5c(=O)cc(N6CC7CCC(C6)O7)oc45)cccc3c2c1 [NU5455]
- inhibition at 1 µM: 6.2%
